Columns and labels:
[1] = test system: A549 (human lung adenocarcinoma cell lines); assay: CCK8 cytotoxicity assay; format: cell-based; conditions: Homo sapiens, A549, 60 h; for IC50: read-out: IC50 A549; for inhibition at 2.5 µM / inhibition at 25 µM: read-out: growth inhibition ratio (mean ± SD)
Experimental: (§1) Cytotoxicity screens were performed to assess the in vitro anticancer activity of the synthesized sinomenine derivatives 6a–6l on the various cancer cell lines MCF-7, Hela, SW480, and A549, as well as on Hek293 as a normal cell line, at doses of 2.5 and 25 μM. The obtained inhibition ratios data were used to construct a heat map (Figure 3, Tables S1 and S2) in order to select compounds that exert cancer cell line-specific cytotoxicity. Then, the IC50 values of the promising compound were determined. Cisplatin was used as a reference standard. The antiproliferative activity was based on the evaluation of the percent viability using the CCK8 assay, which is a rapid and sensitive method for determining the number of viable cells in culture. In the presence of electronic coupling reagents, WST-8 can be reduced by a dehydrogenase in the mitochondria to produce a highly water-soluble orange-yellow formazan product. Its color is proportional to the proliferation of the number of viable cells and is related to cytotoxicity. Using a microplate reader to measure the OD value can indirectly reflect the number of living cells at 450 nm wavelength.
(§2) To understand structure–function relationships, these selected compounds were subjected to subsequent analyses. All six compounds (6a and 6c–6g) were further examined to determine their IC50 concentrations on the previously mentioned cell lines, and their efficacy was compared to the reference drug cisplatin. For this, six compounds and cisplatin were evaluated on Hela, MCF-7, SW480, and A549, and on noncancerous Hek293 cell lines at various concentrations for 60 h. IC50 values were calculated (Table 2).
(§3) The MCF-7 (human breast cancer cell lines), Hela (human cervical cancer cell lines), SW480 (human colon adenocarcinoma cell lines), A549 (human lung adenocarcinoma cell lines) and nontoxic normal cells Hek293 (human embryonic kidney cell lines) cells were used to measure the cytotoxicity of the 6a–6l. They were obtained from the Beijing Normal University (Beijing, China). The test cell lines were cultured in DMEM, IMDM, F12 and DMEM nutrient medium containing 10% heat-inactivated fetal bovine serum, […] and 100 units/mL penicillin in a humified, 5% (v/v) CO2 atmosphere at 37 °C.
(§4) Cell viability was estimated using the CCK8 assay. Tumor cells ([…]) viz. MCF-7, Hela, SW480, A549 and nontoxic normal cells Hek293 were seeded in medium containing Corning® 96-well tissue culture plates at confluences of […], respectively, in Incucyte ZOOM. Fresh medium (100 μL) containing different concentrations of the test sample was added after 12 h of seeding. The microtiter plates were incubated at 37 °C in a humidified incubator with 5% CO2 for 60 h. Triplicates from each concentration were used. Negative control cells were incubated without sample and cisplatin as a positive control. At the end of treatment, the numbers of viable cells were determined by the CCK8 test. In brief, the media was removed from the 96 well plates and replaced with 100 μL of fresh culture medium with 10% CCK8 solution added to each well including the untreated controls. The 96 well plates were then incubated at 37 °C and 5% CO2 for 1–4 h. Then, the absorbance was measured at 450 nm using a BMG LABTECH®-POLAR star Omega microplate reader (Ortenberg, Germany) to determine the number of viable cells, and the percentage of viability was calculated as ((ODt- ODb/ODc- ODb)) × 100%, where ODt is the mean optical density of wells treated with the tested sample, ODc is the mean optical density of wells treated with DMSO and ODb is the mean optical density of PBS wells without cells. The relation between surviving cells and drug concentrations were plotted to get the survival curve of each tumor cell line after treatment with the specified compound. […]

[2] = test system: Hela (human cervical cancer cell lines); assay: CCK8 cytotoxicity assay; format: cell-based; conditions: Homo sapiens, HeLa, 60 h; for IC50: read-out: IC50 Hela; for inhibition at 2.5 µM / inhibition at 25 µM: read-out: growth inhibition ratio (mean ± SD)
Experimental: as §1, §2, §3, §4

[3] = test system: MCF-7 (human breast cancer cell lines); assay: CCK8 cytotoxicity assay; format: cell-based; conditions: Homo sapiens, MCF7, 60 h; for IC50: read-out: IC50 MCF-7; for inhibition at 2.5 µM / inhibition at 25 µM: read-out: growth inhibition ratio (mean ± SD)
Experimental: as §1, §2, §3, §4

[4] = test system: SW480 (human colon adenocarcinoma cell lines); assay: CCK8 cytotoxicity assay; format: cell-based; conditions: Homo sapiens, SW480, 60 h; for IC50: read-out: IC50 SW480; for inhibition at 2.5 µM / inhibition at 25 µM: read-out: growth inhibition ratio (mean ± SD)
Experimental: as §1, §2, §3, §4

[5] = test system: Hek293 (human embryonic kidney cell lines); assay: CCK8 cytotoxicity assay, normal cells; format: cell-based; conditions: Homo sapiens, HEK293, 60 h; for IC50: read-out: IC50 Hek293; for inhibition at 2.5 µM / inhibition at 25 µM: read-out: growth inhibition ratio (mean ± SD)
Experimental: as §1, §2, §3, §4

Structure (SMILES) | IC50 [1] [µM] | inhibition at 2.5 µM [1] [%] | inhibition at 25 µM [1] [%] | IC50 [2] [µM] | inhibition at 2.5 µM [2] [%] | inhibition at 25 µM [2] [%] | IC50 [3] [µM] | inhibition at 2.5 µM [3] [%] | inhibition at 25 µM [3] [%] | IC50 [4] [µM] | inhibition at 2.5 µM [4] [%] | inhibition at 25 µM [4] [%] | IC50 [5] [µM] | inhibition at 2.5 µM [5] [%] | inhibition at 25 µM [5] [%] | melting point [°C]
COC1=C[C@@H]2[C@@H]3Cc4c(CN5CCCC5)cc(OC)c(OC(=O)Cc5ccc(Cl)cc5Cl)c4[C@]2(CCN3C)CC1=O [6d, (4bR,8aS,9S)-3,7-dimethoxy-11-methyl-6-oxo-1-(pyrrolidin-1-ylmethyl)-6,8a,9,10-tetrahydro-5H-9,4b-(epiminoethano)phenanthren-4-yl 2-(2,4-dichlorophenyl)acetate] | 11.6 ± 1.61 | 29.59 ± 0.16 | 93.02 ± 0.2 | 8.2 ± 0.52 | 10.3 ± 4.44 | 93.1 ± 0.17 | 5.73 ± 0.36 | 0 | 88.6 ± 2.73 | 6.08 ± 0.28 | 29.1 ± 6.92 | 94.2 ± 3.21 | 3.46 ± 0.02 | 42.6 ± 0.84 | 84.6 ± 4.34 | 82 to 86
COC1=C[C@@H]2[C@@H]3Cc4c(CN5CCCC5)cc(OC)c(OC(=O)Cc5ccccc5F)c4[C@]2(CCN3C)CC1=O [6l, (4bR,8aS,9S)-3,7-dimethoxy-11-methyl-6-oxo-1-(pyrrolidin-1-ylmethyl)-6,8a,9,10-tetrahydro-5H-9,4b-(epiminoethano)phenanthren-4-yl 2-(2-fluorophenyl)acetate] | – | 13.2 ± 4.88 | 47.1 ± 5.4 | – | 0.61 ± 0.6 | 29 ± 1.88 | – | 4.61 ± 4.79 | 9.52 ± 8.26 | – | 3.91 ± 0.85 | 16.5 ± 0.53 | – | 12.7 ± 2.89 | 68.8 ± 13.3 | 178 to 180
COC1=C[C@@H]2[C@@H]3Cc4c(CN5CCCC5)cc(OC)c(OC(=O)Cc5cccc(Cl)c5)c4[C@]2(CCN3C)CC1=O [6e, (4bR,8aS,9S)-3,7-dimethoxy-11-methyl-6-oxo-1-(pyrrolidin-1-ylmethyl)-6,8a,9,10-tetrahydro-5H-9,4b-(epiminoethano)phenanthren-4-yl 2-(3-chlorophenyl)acetate] | 17.9 ± 0.74 | 25.6 ± 1 | 61.06 ± 0.13 | 13.3 ± 0.95 | 3.21 ± 2.37 | 80.9 ± 2.05 | 14.9 ± 0.15 | 6.92 ± 2.62 | 77.85 ± 0.45 | > 25 | 29.4 ± 7.71 | 61 ± 7.14 | 16.6 ± 0.64 | 14.4 ± 2.54 | 63.3 ± 11.4 | 68 to 72
COC1=C[C@@H]2[C@@H]3Cc4c(CN5CCCC5)cc(OC)c(OC(=O)Cc5ccc(OC)c(OC)c5)c4[C@]2(CCN3C)CC1=O [6b, (4bR,8aS,9S)-3,7-dimethoxy-11-methyl-6-oxo-1-(pyrrolidin-1-ylmethyl)-6,8a,9,10-tetrahydro-5H-9,4b-(epiminoethano)phenanthren-4-yl 2-(3,4-dimethoxyphenyl)acetate] | – | 0 | 30.9 ± 0.32 | – | 2.03 ± 2.29 | 11.5 ± 4.88 | – | 3.63 ± 3.16 | 2.7 ± 4.67 | – | 22.9 ± 6.49 | 29.5 ± 11.2 | – | 0.66 ± 1.14 | 45.9 ± 1.35 | 80 to 83
COC1=C[C@@H]2[C@@H]3Cc4c(CN5CCCC5)cc(OC)c(OC(=O)Cc5ccc([N+](=O)[O-])cc5)c4[C@]2(CCN3C)CC1=O [6j, (4bR,8aS,9S)-3,7-dimethoxy-11-methyl-6-oxo-1-(pyrrolidin-1-ylmethyl)-6,8a,9,10-tetrahydro-5H-9,4b-(epiminoethano)phenanthren-4-yl 2-(4-nitrophenyl)acetate] | – | 15.4 ± 5.6 | 38.7 ± 8.59 | – | 0 | 3.75 ± 0.91 | – | 3.64 ± 6.3 | 1.97 ± 2.75 | – | 0 | 0.92 ± 1.34 | – | 20.5 ± 6.76 | 56.1 ± 7.28 | 82 to 85

Reference: PMC8200971, “Design, Synthesis, Biological Evaluation and Silico Prediction of Novel Sinomenine Derivatives” (Molecules, 2021)
